In patent US20240246937A1 (MERCK SHARP & DOHME LLC, priority 2021, published 2024):

Molecular target: recombinant IL4I1 (Homo sapiens (Human), UniProt Q96RQ9)
Assay: IL4I1 Enzymatic Assay (Amplex Red/HRP coupled fluorescence detection of H2O2)
Format: biochemical
Conditions: 240 min; recombinant IL4I1, four-hour pre-incubation with compound
Procedure, shortened: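 Ten-point, 1:3 compound titrations were fitted by four-parameter sigmoidal regression to give EC50. Resorufin fluorescence (544/590 nm) from Amplex Red/HRP-coupled H2O2 detection was read 120 min after adding 1 mM each aromatic amino acid to 1 nM IL4I1, following a 4 h compound pre-incubation in pH 7.0 Hepes buffer.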

recombinant IL4I1, sequence (Q96RQ9 22-567): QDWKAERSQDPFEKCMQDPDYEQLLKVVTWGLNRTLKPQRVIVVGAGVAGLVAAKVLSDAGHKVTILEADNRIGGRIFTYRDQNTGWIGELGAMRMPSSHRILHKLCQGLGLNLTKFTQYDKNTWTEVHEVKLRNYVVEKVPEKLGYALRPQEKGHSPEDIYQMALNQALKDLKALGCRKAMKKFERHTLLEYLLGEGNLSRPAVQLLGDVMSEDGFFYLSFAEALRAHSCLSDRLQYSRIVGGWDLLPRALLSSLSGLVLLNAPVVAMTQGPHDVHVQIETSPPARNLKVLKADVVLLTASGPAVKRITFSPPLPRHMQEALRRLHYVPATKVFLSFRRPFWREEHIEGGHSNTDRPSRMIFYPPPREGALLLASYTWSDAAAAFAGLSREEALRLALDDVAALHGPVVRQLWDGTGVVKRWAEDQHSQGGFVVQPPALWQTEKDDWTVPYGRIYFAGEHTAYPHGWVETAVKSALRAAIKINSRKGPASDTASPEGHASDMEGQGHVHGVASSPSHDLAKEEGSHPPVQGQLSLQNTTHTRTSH

EC50 | Structure (SMILES)
71 nM | O=C1C(=O)N(C2CC(O)C2)CCN1Cc1ccc(-c2ccccc2F)nn1 (stereo not drawn) [Example 434, 1-((6-(2-fluorophenyl)pyridazin-3-yl)methyl)-4-(3-hydroxycyclobutyl)piperazine-2,3-dione]
20 nM | N#Cc1ccccc1-c1nnc(CN2CCN(C34CC(C3)C4)C(=O)C2=O)s1 [Example 436, 2-(5-((4-(bicyclo[1.1.1]pentan-1-yl)-2,3-dioxopiperazin-1-yl)methyl)-1,3,4-thiadiazol-2-yl)benzonitrile]
9 nM | O=C1C(=O)N(C23CC(C2)C3)CCN1Cc1cn(-c2ccccc2)nn1 [Example 439, 1-(bicyclo[1.1.1]pentan-1-yl)-4-((1-phenyl-1H-1,2,3-triazol-4-yl)methyl)piperazine-2,3-dione]
